Results on 4 molecules are retold here after ChEMBL document CHEMBL1201862, “PubChem BioAssay data set” (2004).

As a reminder, the EC50 is the midpoint of the concentration-response curve.

Activity calls are given as the source filed them.

For assay [1], the target named is T1, Sentrin-specific protease 1 (Homo sapiens, UniProt Q9P0U3).
T1 sequence (Q9P0U3 whole entry): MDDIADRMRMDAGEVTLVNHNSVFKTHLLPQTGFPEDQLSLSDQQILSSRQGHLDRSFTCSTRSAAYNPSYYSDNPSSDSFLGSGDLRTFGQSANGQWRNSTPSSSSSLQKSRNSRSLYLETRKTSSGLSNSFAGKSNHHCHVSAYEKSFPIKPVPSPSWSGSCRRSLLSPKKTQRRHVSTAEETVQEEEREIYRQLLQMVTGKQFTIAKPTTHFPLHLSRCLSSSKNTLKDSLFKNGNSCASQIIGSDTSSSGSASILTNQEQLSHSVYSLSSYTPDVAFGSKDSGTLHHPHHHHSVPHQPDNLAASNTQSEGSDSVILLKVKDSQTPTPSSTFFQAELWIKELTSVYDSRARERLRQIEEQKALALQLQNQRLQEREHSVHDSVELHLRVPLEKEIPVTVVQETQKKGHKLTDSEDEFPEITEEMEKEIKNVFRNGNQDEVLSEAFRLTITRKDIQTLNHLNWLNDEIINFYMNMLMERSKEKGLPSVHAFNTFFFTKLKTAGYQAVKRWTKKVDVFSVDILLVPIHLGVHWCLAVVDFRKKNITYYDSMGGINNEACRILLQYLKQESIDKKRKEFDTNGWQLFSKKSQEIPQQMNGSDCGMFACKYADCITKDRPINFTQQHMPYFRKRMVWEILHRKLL
In words: Dose response confirmation of small molecule inhibitors of the catalytic domain of the SUMO protease, SENP1 in a FRET assay. To be noted: read-out: IC50_Mean. In kind it is functional.

Assay [2] concerns the target T1, Sentrin-specific protease 1. The experiment in a line: SENP1 catalytic domain blockers, concentration series – biochemical, kinetic FRET, dose response (AID 651697). In kind it is functional. The settings on record: read-out: IC50_Mean.
Assay [3] deals with T2, Estrogen receptor (Homo sapiens, UniProt P03372).
T2 sequence (P03372 whole entry): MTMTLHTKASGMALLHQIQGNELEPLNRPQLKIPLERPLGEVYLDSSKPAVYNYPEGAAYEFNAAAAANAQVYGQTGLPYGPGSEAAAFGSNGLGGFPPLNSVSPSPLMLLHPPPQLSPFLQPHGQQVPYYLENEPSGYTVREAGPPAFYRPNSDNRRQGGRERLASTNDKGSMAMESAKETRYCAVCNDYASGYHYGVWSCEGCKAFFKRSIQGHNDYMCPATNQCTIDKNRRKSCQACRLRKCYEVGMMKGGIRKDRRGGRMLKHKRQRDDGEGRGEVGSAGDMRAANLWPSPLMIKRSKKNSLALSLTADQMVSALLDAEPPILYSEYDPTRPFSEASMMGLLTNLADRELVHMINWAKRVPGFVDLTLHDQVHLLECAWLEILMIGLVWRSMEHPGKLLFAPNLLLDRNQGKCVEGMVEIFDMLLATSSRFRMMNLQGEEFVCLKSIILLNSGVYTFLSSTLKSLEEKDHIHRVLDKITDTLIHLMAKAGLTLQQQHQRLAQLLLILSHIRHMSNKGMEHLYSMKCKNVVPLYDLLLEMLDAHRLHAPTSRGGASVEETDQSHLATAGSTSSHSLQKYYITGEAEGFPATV

The nature of assay [4]: NIH-3T3 fibroblast cytotoxicity, dose response, cytotoxicity control, cell-based, fluorescence, Alamar Blue, secondary assay (AID 2327).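 Also: NIH-3T3 mouse fibroblasts cultured with fluconazole at 8 µg/mL.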 It counts as functional.
The nature of assay [5]: Trypanosoma cruzi growth suppression in host cells – NIH3T3 host cells, beta-gal luminescence, confirmation (AID 2044).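 Also: intracellular parasites grown in NIH/3T3 mouse fibroblasts as host cells; luminescent beta-galactosidase reporter signal from transgenic T. cruzi replicating inside host cells; inhibitors lower the luminescence signal.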 It counts as functional, cell-based.
The nature of assay [6]: cells.
A short description of assay [7]: fluconazole-exposed Candida albicans growth modulators – fluorescence, retest, confirmation (AID 2467). In kind it is functional, cell-based.
The nature of assay [8]: NIH3T3 cell viability loss – ATP luminescence, mouse fibroblasts, counter-screen, dose response (AID 2010).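 Also: cells exposed to compound for about 90 hours before reading.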 It counts as functional, cell-based. On the technique in general: A counterscreen serves to expose hits that act by an unwanted route or on another target.

Take `COc1cc(S(=O)(=O)Nc2ccc3c(c2)C(=O)N(C)C3=O)ccc1NC(C)=O`: the IC50 is 9.39 µM (active) in assay [1] and 9.06 µM (active) in assay [2].

Consider `c1ccc(NC2=Nc3cccc4cccc2c34)cc1`, for which the IC50 is 17.2 µM (active) in assay [1] and 53.8 µM (inactive) in assay [2].

As to `COc1ccc(NC2=Nc3cccc4cccc2c34)cc1`, the IC50 in assay [1] was 10 µM (active); in assay [2], 45.8 µM (inactive).

Turning to `Cc1cccc(-n2c(SCc3cc(=O)n4ccsc4n3)nc3ccccc32)c1`, the results for the IC50 in assay [1], in assay [3] and in assay [2] were 9.71 µM (active), > 50 µM (not active) and 22.3 µM (inactive), respectively. The EC50 in assay [4] is 19.9 µM (active); in assay [5], < 0.1 µM (active); in assay [6], 0.209 µM (active); in assay [7], 2.05 µM (active); in assay [8], > 60 µM (not active).
